# Measured values from publication PMC7961786, “Magic Peptide: Unique Properties of the LRR11 Peptide in the Activation of Leukotriene Synthesis in Human Neutrophils” (International Journal of Molecular Sciences, 2021).
# Oligonucleotides are written 5' to 3', each unit as a sugar letter and its base; * is a phosphorothioate linkage, no mark a phosphodiester; rarer units and linkages stand in square brackets, end groups in braces. Plain capitals give the bases only. d = 2'-deoxy (DNA)
# Tests used:
# cells, CpG-ODN delivery = details: ref [43],[44]; cited from earlier work
# From the text: (§1) LRR11, like LL-37, belongs to the group of cationic antimicrobial peptides, which are characterized by high content of hydrophobic residues (~40%) and overall positive charge due to the increased content of Arg and Lys residues. They block many functions of LPS [39, 40], interact with intracellular DNA, and mediate DNA uptake and transport in mammalian cells.
# [1] = test system: telomeric G-quadruplex DNA; details: ref [42]; cited from earlier work
# From the text: as §1
# [2] = test system: human neutrophils (PMNLs), 5-LOX product synthesis; assay: 5-LOX metabolite synthesis in human neutrophils stimulated with opsonized S. typhimurium (HPLC); format: cell-based
# Procedure: Figure 1 Effects of LRR11 and ODNs on the formation of LTB4 (A,B) and the sum of 5-LOX metabolites (ω-OH-LTB4, LTB4 and its isomers, and 5-HETE) (C) in human PMNLs. PMNLs (2 × 10^7) were incubated for 15 min at 37 °C without (black bars) or with 1 μM LRR11 (A, LRR11_first); then ODNs and LRR11 or LPS were added; various ways of adding ODN and LRR11 peptide are indicated. In control samples, Hanks’ solution was added instead of ODNs. After 20 min, 0.5 × 10^9 S. typhimurium bacterial cells were added for a further 15 min. The 5-LOX products were determined using HPLC. Values indicate mean ± SEM of five independent experiments performed in duplicate. * p < 0.05, ** p < 0.01, *** p < 0.005, compared with the control. # p < 0.05, ## p < 0.01 for pairs of data compared as indicated by two-way ANOVA followed by Tukey’s multiple comparison test.
# Figure 3 Synthesis of the 5-LOX metabolites in PMNLs exposed to opsonized S. typhimurium bacteria in the presence of the RAGE antagonist FPS-ZM1. PMNLs (2 × 10^7) were incubated for 15 min at 37 °C without additives or with 0.15 µM FPS-ZM1, for the next 20 min the mixture was incubated with 1 µM ODNs without (black bars) or with 1 µM LRR11 (gray bars) before adding 5 × 10^8 S. typhimurium for 15 min. In control samples, Hanks’ solution was added instead of ODNs. The 5-LOX products were determined using HPLC. Graphical data are presented for LTB4 (A) or the sum of LTB4 and its isomers, ω-OH-LTB4 and 5-HETE, designed as Σ5LOX products (B).
# Human neutrophils were isolated from freshly taken citrate-anticoagulated peripheral blood from healthy individuals using standard methods. Leukocyte-rich plasma was prepared by sedimentation of erythrocytes with 3% dextran T-500 at room temperature. For purification of granulocytes, centrifugation through Ficoll-Paque (density 1.077 g/mL) was used, followed by hypotonic lysis of the remaining erythrocytes. […] All methods were performed in accordance with the relevant instructions and regulations of the Ministry of Health of the Russian Federation and local legislation.
# Bacteria (S. typhimurium IE 147 strain) obtained from the Collection of Gamaleya National Research Center of Epidemiology and Microbiology (Moscow, Russia) were grown in Luria–Bertani broth to a concentration of 1 × 10^9 colony-forming units (CFU)/mL. The bacteria were collected by centrifugation at 2000 g and opsonized immediately before the experiment for 30 min in 20% (v/v) fresh serum from the same donor whose blood was used to isolate neutrophils. Repeated centrifugation in Dulbecco’s solution was used to wash the bacteria.
# The cell suspension (2 × 10^7 PMNLs in HBSS/HEPES, reaction volume of 6 mL) was cultured for 15 min in an incubator at 37 °C, 5% CO2. Then 1.0 µM ODN with or without 1.0 µM LRR11, or 2 µg/mL LPS, was added as indicated. After 20 min, the cells were stimulated with S. typhimurium (the ratio of bacteria to PMNLs was approximately 20:1) for the next 15 min [3]. The synthesis of 5-LOX metabolites was stopped by adding an equal volume of methanol at −20 °C with prostaglandin B2 as an internal standard. Samples were stored at −20 °C. The denatured cell suspension was centrifuged, and supernatants designated as water/methanol extracts.
# (§2) To purify the water/methanol extracts, solid-phase extraction was used on Sep-Pak C18 cartridges (500 mg; Macherey-Nagel, Dueren, Germany), which were conditioned first with methanol, and then with water. Major 5-LOX metabolites were identified by comparing retention times with those of known compounds, as previously described.
# Table S1. Effect of Chloroquine on 5-LOX product formation in PMNLs after ODN priming followed by the addition
# of opsonized S. typhimurium bacteria.
# [3] = test system: human neutrophils (PMNLs), 5-LOX product synthesis; parameters: method as in PMID 27036535; details: ref [3]; cited from earlier work
# TLR9 signaling = details: ref [25]; cited from earlier work
# PMNLs = assay: Phagocytosis of FITC-labeled S. typhimurium by neutrophils; format: cell-based, human; details: 1 µM ODN +/- 1 µM LRR11, FITC-labeled S. typhimurium 20 min; n = 3; Figure S2b
# Procedure: Figure S2b. Influence of LRR11 and ODNs on phagocytic activity of neutrophils. PMNLs supplemented with 1 µM ODN +/- 1 µM LRR11, except for control samples containing HBSS/HEPES instead of ODNs, were incubated for 20 min in Eppendorf tubes at 37 °C in 5% CO2 with continuous stirring. FITC-labeled S. typhimurium were then added for next 20 min, followed by FACS analysis (excitation: 488 nm, emission: 525 nm). Both the relative amounts of PMNLs involved in phagocytosis (A, B) and the fluorescence intensities, reflecting the average number of bacteria captured per cell (C, D), were estimated. To distinguish between internalized and surface-bound bacterial cells, trypan blue at a working concentration of 1 mg/ml, was used to quench the surface FITC fluorescence caused by the attached bacteria. Thus, each series of samples was duplicated to obtain results both without (A, C) and with (B, D) TB quenching, which corresponds to the total interaction and uptake of bacteria. Averaged flow cytometry data are presented, including means ± SEM for the percentages of FITC-positive (i.e., phagocytic) cells (A, B), and mean ± SEM for fluorescence intensities of FITC-positive subpopulations (C, D) (n=3; * p < 0.05; ** p < 0.01 in comparison with corresponding controls, ns – non significant, as indicated by two-way ANOVA followed by Dunnett’s or Tukey’s multiple comparison tests). […]
# [4] = test system: vascular smooth muscle cells; details: ref [56]; cited from earlier work
# From the text: RAGE is shown to bind molecules, known as damage-associated molecular patterns (DAMPs), released by cells that die or are under conditions of inflammation.
# [5] = test system: PMNLs, 5-LOX product formation; assay: 5-LOX product formation in PMNLs stimulated by calcium ionophore A23187; format: cell-based, human
# Procedure: Human neutrophils were isolated from freshly taken citrate-anticoagulated peripheral blood from healthy individuals using standard methods. Leukocyte-rich plasma was prepared by sedimentation of erythrocytes with 3% dextran T-500 at room temperature. For purification of granulocytes, centrifugation through Ficoll-Paque (density 1.077 g/mL) was used, followed by hypotonic lysis of the remaining erythrocytes. PMNLs were washed twice in PBS, resuspended at 10^7 cells/mL (96–97% purity, 98–99% viability) in Dulbecco’s PBS containing 1 mg/mL glucose (no CaCl2) and stored at room temperature. All methods were performed in accordance with the relevant instructions and regulations of the Ministry of Health of the Russian Federation and local legislation.
# as §2
# [6] = test system: human neutrophils (PMNLs); assay: Binding and uptake of FAM-labeled ODNs by neutrophils (flow cytometry); format: cell-based; details: 0.15 µM FPS-ZM1, 15 min, then 1 µM FAM-ODN 20 min; n = 3; Figure 7
# Procedure: Figure 6 The LRR11 peptide affects the binding and uptake of ODNs by neutrophilic granulocytes. PMNLs (1 × 10^6/mL) in HBSS/HEPES were incubated for 20 min at 37 °C in 5% CO2 with 1 µM FAM-labeled ODN, supplemented or not with 1 µM LRR11 peptide. Both the total ODN accumulation (red) and its intracellular constituent (black) were analyzed by flow cytometry. Surface fluorescence was quenched by trypan blue (TB) solution. Values represent the means ± SEM of FAM fluorescence intensities (RFU, relative fluorescence units) (n = 8). ** p < 0.01; *** p < 0.005, **** p < 0.001 for specified data pairs, as indicated by two-way ANOVA followed by Tukey’s multiple comparison test. Mean fluorescence intensities of unstained PMNLs were 62 ± 12 and 39 ± 5.6 without or after TB quenching, respectively.
# Figure 7 RAGE antagonist effect on oligonucleotide penetration into neutrophil cells. […] Both total oligonucleotide accumulation (A) and its intracellular constituent (B) were analyzed by flow cytometry. The surface fluorescence was quenched by trypan blue solution. Values represent the means ± SEM of FAM fluorescence intensities (RFU) (n = 3). * p < 0.05; […]; *** p < 0.005 for the pair of data specified, as indicated by two-way ANOVA followed by Tukey’s multiple comparison test. Fluorescence intensities of unstained controls were 62 ± 14 and 49 ± 6 without, or after TB quenching, respectively. […]
molecule,measurement,setting,value
LL-37,delivery of bacterial CpG-ODNs to cells,"cells, CpG-ODN delivery",promotes the rapid delivery of bacterial CpG-ODNs to cells
same,complex with telomeric G-quadruplex DNA,[1],forms a complex with telomeric G-quadruplex DNA
CCN(CC)CCCC(C)Nc1ccnc2cc(Cl)ccc12 (centres unmarked) [Chloroquine],effect of chloroquine on CpG-ODN action on 5-LOX products,"[2]; 5 µM Chloroquine, B- and C-class CpG-ODNs, Table S1",the effects of B- and C-class CpG-ODNs were not sensitive to chloroquine
same,Σ 5-LOX metabolites,"[2]; Table S1, 2×10^7 PMNLs, 15 min at 37 °C without or with 5 µM Chloroquine, then ODN, after 20 min 0.5×10^9 opsonized S. typhimurium for 15 min, mean ± SEM, three independent experiments",19.8 ± 2.7 ng/107 PMNLs
same,effect of chloroquine on inhibition of 5-LOX product formation by ODN 2216,[3],abrogated by chloroquine
same,inhibition of CpG-ODN–induced cell activation,TLR9 signaling,known to inhibit CpG-ODN–induced cell activation
"5′-ggTTAGGGTTAGGGTTAGGGTTAGGGggggg-3′ (DNA dG*dG*dTdTdAdGdGdGdTdTdAdGdGdGdTdTdAdGdGdGdTdTdAdGdGdGdG*dG*dG*dG*dG) [G-rich ODN, G-rich ODN containing human telomeric tandem repeats]",effect on 5-LOX activity / leukotriene synthesis,"[2]; ODN alone, 1 µM, 20 min, then opsonized S. typhimurium 15 min, Figure 1, five independent experiments in duplicate",increased leukotriene synthesis
same,effect on bacteria engulfment,PMNLs,only G-rich ODN facilitated the bacteria engulfment
"CCCCC/C=C\C[C@@H](O)/C=C/C=C/C=C\[C@@H](O)CCCC(=O)O [LTB4, leukotriene B4, reference compound]",RAGE expression / LTB4 production in vascular smooth muscle cells,[4],increases RAGE expression in proliferating human vascular smooth muscle cells
O=C(c1ccc(Cl)cc1)N(Cc1ccccc1)C1CCCCC1 [FPS-ZM1],effect of FPS-ZM1 on 5-LOX product formation stimulated by bacterial phagocytosis,"[2]; 0.15 µM FPS-ZM1, S. typhimurium, Figure 3",inhibited the 5-LOX product formation stimulated by bacterial phagocytosis
same,effect of FPS-ZM1 on ODN effects on leukotriene synthesis,"[2]; 150 nM FPS-ZM1, 15 min before 1 µM ODNs, Figure 3, four independent experiments",strongly reduce the effects of ODNs on leukotriene synthesis
same,Σ 5-LOX metabolites,"[5]; 150 nM FPS-ZM1 30 min at 37 °C, then 1 µM A23187 10 min, mean ± SEM, three independent experiments",438 ± 42 ng/10^7 PMNLs
same,effect of FPS-ZM1 on A23187-induced leukotriene synthesis,"[5]; 150 nM FPS-ZM1, 1 µM A23187",did not affect the leukotriene synthesis induced by the calcium ionophore A23187
same,effect of RAGE antagonist on ODN internalization,[6],suppressed ODN internalization
